Laboratory results: patent US6395261B1, “Walnut seed meal extract” (Gattefosse S.A., priority 1998, dated 2002)

What was measured:
[1] = system: elastase; assay: Elastase activity of cellular extracts of fibroblasts (SANA substrate); assay type: biochemical, human; conditions: positive control at 2 mM
Procedure: This activity is evaluated on cellular extracts of fibroblasts of human dermis, isolated from the foreskin and cultured according to routine techniques at 37° C., in a humid air-CO2 (95/5%) atmosphere.
The fibroblasts are cultured in DMEM medium supplemented with fetal calf serum (10% FCS) and passaged regularly until a sufficient biomass is obtained.
To carry out the test, the cells are detached from their support by trypsinization. After centrifugation and suitable treatment, the cellular extracts are recovered.
The elastase activity of the cellular extracts was evaluated using Suc-(L-Ala)3-p-nitroanilide (SANA) as substrate. Aliquots of the cellular extract are preincubated at 37° C. in TEA (triethanolamine) buffer at pH=7.8, alone or in buffer containing various concentrations of extracts.
After incubation, a solution of SANA is added to the reaction mixture.
The optical densities at 405 nm are recorded for 1 hour 30 min to 2 hours.
A positive control was introduced into the trial (dichloroisocoumarin at 2 mM).

[2] = system: human skin fibroblasts; assay: Incorporation of 3H-leucine into protein fractions of fibroblasts in monolayer culture; assay type: cell-based; conditions: vitamin C reference product
Procedure: After culture of the human skin fibroblasts until the cells become confluent, the culture medium is replaced by a medium containing 2% FCS (Fetal Calf Serum) with:
or vitamin C (reference product).
A batch of untreated control culture is performed in parallel.
After 24 hours of incubation at 37° C., labeled leucine (^3H-leucine) is added to the culture medium and the medium is left to incubate for an additional 48 hours. The following are recovered separately:
on the one hand, the culture medium,
on the other hand, the cell lysate after cellular lysis,
and finally the insoluble fraction (membranes, matrix deposited).
The macromolecules are extracted and then the incorporation of the radioactive precursor of these molecules is measured by liquid scintillation.

[3] = macromolecules extracted from the culture medium
[4] = macromolecules extracted from the intracellular medium

| SMILES | Inhibition ([1]; elastase activity) | mU elastase/10^6 cell [1] | % Control [2, 3] | Counts/minute [2, 3] | % Control [2, 4] | Counts/minute [2, 4] |
| --- | --- | --- | --- | --- | --- | --- |
| O=c1oc(Cl)c(Cl)c2ccccc12 [DCI, dichloroisocoumarin] | 37 | 0.431 mU elastase/10^6 cell |  |  |  |  |
| O=C1O[C@H]([C@@H](O)CO)C(O)=C1O [Vitamin C, vitamin C] |  |  | 132 % Control | 34748 ± 2599 Counts/minute | 96 % Control | 35953 ± 4349 Counts/minute |
